Columns and labels:
[1] = logP (physical data of the preparation examples); type: physicochemical
Phytophthora infestans = type: in vivo; conditions: Tomate, protektiv; for Wirkungsgrad in %: Aufwandmenge an Wirkstoff 50 g/ha, evaluated 3 days after inoculation, 0 % = as control, 100 % = no infestation; for Wirkungsgrad: Wirkstoffaufwandmenge 50 g/ha, summary sentence in the text for both compounds

| Structure (SMILES) | logP [1] | Wirkungsgrad in % (Phytophthora infestans) | Wirkungsgrad (Phytophthora infestans) |
| --- | --- | --- | --- |
| COc1ccc(CCNC(=O)C(O)c2ccc3c(c2)CCCCC3)cc1OC (stereo not shown) [Beispiel 6] | 2.7 |  |  |
| COc1ccc(CCNC(=O)C(O)c2ccc3c(c2)CCC3)cc1OC (stereo not shown) [Beispiel 5] | 2.19 |  |  |
| COc1ccc(CCNC(=O)C(O)c2ccc3c(c2)CCCC3)cc1OC (stereo not shown) [Beispiel 2, N-[2-(3,4-Dimethoxyphenyl)-ethyl]-2-hydroxy-2-(5,6,7,8-tetrahydronaphthalin-2-yl)-acetamid] | 2.43 |  |  |
| COc1ccc(CCNC(=O)C(=O)c2ccc3c(c2)CCC3)cc1OC [Beispiel 3] | 2.92 | 90% | 90 -95% |
| COc1ccc(CCNC(=O)C(=O)c2ccc3c(c2)CCCCC3)cc1OC [Beispiel 4] | 3.57 |  |  |
| COc1ccc(CCNC(=O)C(=O)c2ccc3c(c2)CCCC3)cc1OC [Beispiel 1, N-[2-(3,4-Dimethoxyphenyl)-ethyl]-2-oxo-2-(5,6,7,8-tetrahydronaphthalin-2-yl)-acetamid] | 3.24 | 95% | 90 -95% |

Source: EP0934252B1, “AMIDE DERIVATIVES AND THEIR USE AS PESTICIDES” (BAYER AG, priority 1996, dated 1998)
